Measurements: a melting point compilation (Tetko et al.; mined from patent text by program, amines drawn as free bases though some values may be those of a salt)
Residues, ends and D or L forms follow the SMILES beside them. *: point of attachment. OiPr = CC(C)O*

SMILES	melting point
O=C(NC(O)C(=O)O)c1c(F)cccc1F (configuration not stated)	125 to 127 °C
CC1=NNC(=O)N(N)C1	117 to 119 °C
CC(=O)CC(=S)NCC(=O)N1CCC[C@H]1C(=O)O	> 320 °C
Cc1cc(C)c(CP(=O)(c2ccccc2)c2ccccc2)c(-c2ccc(F)c(C)c2)c1	109 to 111 °C
COC1C(O)C=C(C)C(OC(=O)c2ccccc2)CC1(C)C (configuration not stated)	82.5 to 83.5 °C
CCc1ccc(Nc2nc3cc(NC(=O)c4cc([N+](=O)[O-])ccc4Cl)ccc3o2)cc1	> 250 °C
COC1=C(OC)C(=O)C2=C(CC(CCCCOc3ccc(C(=O)N(C)C)cc3)C2)C1=O	80 to 83 °C
ON=C(c1ccccc1)c1ccc(C(=NO)c2ccccc2)cc1	230 to 233 °C
O=C(O)CCCCCCC1C(=O)NC(=O)N1CCCCCc1ccccc1 (configuration not stated)	90 to 92 °C
CC1(C)c2ccccc2C(C)(C)N1Cc1ccccc1	61 to 61.4 °C
O=NCNC1=Nc2ccccc2N(c2ccccc2)C(=O)C1	139 to 140 °C
NNC(=S)NCc1ccc([N+](=O)[O-])cc1	196 to 198 °C
Cc1c(C(=O)c2cccc(O)c2)sc(N)c1C(=O)OC(C)(C)C	169 to 172 °C
O=S(=O)(c1cccc(F)c1)N1CCCC1c1ccc(F)cc1 (racemic)	101 °C
CCCc1cc2c(=O)n3cc(C#N)ccc3nc2s1	217 to 218 °C
COc1ccc(/C=C2/c3cc(OC)c(OC)cc3CCN2C(=O)c2cc(OC)c(OC)c(OC)c2)cc1OC	195 to 200 °C
CC(NC(=O)NCCCCC1CCSS1)C(=O)O (configuration not stated)	131 to 134 °C
C[C@@H](COS(C)(=O)=O)NS(=O)(=O)c1ccccc1[N+](=O)[O-]	125 to 126 °C
COc1nc(CO)ccc1CN1CC1C#N (configuration not stated)	68 to 70 °C
CCOc1c(OC)cc(C(=O)NN=C2CCCC2=Cc2ccccc2)cc1OC	239 to 240 °C

SMILES	melting point
CC(CC(=O)O)C(=O)c1ccc(-n2ccc(=O)cc2)cc1 (configuration not stated)	250 to 252 °C
COCOc1cc(NC(=O)OC(C)(C)C)cc2ccccc12	64 to 66 °C
CCC1C(C)=NN=C(c2ccccc2)c2ccc(OC)cc21 (configuration not stated)	162 to 163 °C
NC(=O)C[C@H](NC(=O)c1ccccn1)C(=O)O	171 to 172 °C
COC(=O)Nc1c(C#N)cnn1-c1ccc(Cl)c(Cl)c1Cl	205 to 207 °C
O=C1C(=Cc2cccnc2)CCc2ccc(Br)cc21	124 to 125 °C
Cc1c(C(=O)c2ccccc2)[nH]c(CC(=O)O)c1C(=O)O	250 to 253 °C
CCOC(=O)c1cc2ccccc2n1S(=O)(=O)c1ccc(C)cc1	92 to 95 °C
Cn1[nH]c(=O)n(-c2cc(F)c(C(=O)Cl)cc2F)c1=O	> 250 °C
COc1ccc(C#N)cc1-c1cc(-c2ccc(C#N)cc2[N+](=O)[O-])no1	264 to 266 °C
CCCc1nc(C(=O)OCC)c(C(=O)OCC)[nH]1	81 to 83 °C
N#Cc1ccc(N2CCC(CC(=O)O)CC2)c2ccccc12	195 to 196 °C
COc1ccccc1C(O)(CC#N)c1ccccc1OC	170 to 180 °C
O=S(=O)(c1[nH]c(-c2ccc(Cl)cc2)c(S(=O)(=O)C(F)(F)F)c1Br)C(F)(F)F	115 to 135 °C
Cc1ccn(-c2ccc(C(=O)N3Cc4cccnc4Oc4ccccc43)c(Cl)c2)n1	220 to 222 °C
C=C(CCC(=O)O)CC(N)C(=O)O (configuration not stated)	68 °C
Nc1ccccc1NS(=O)(=O)c1ccc([N+](=O)[O-])cc1	190 to 191 °C
N#Cc1ccnc(-c2nc(=O)c3ccccc3s2)c1	283 to 284 °C
CN1C(=O)C(C(=O)Nc2ccccc2)Sc2ccccc21 (configuration not stated)	124 to 126 °C
O=C(N1CCOCC1)C1(c2onc(-c3ccc(O)cc3)c2-c2ccccc2)CC1	195 to 196 °C

SMILES	melting point
COC(=O)C1(Cl)C[C@H](OC(C)=O)[C@@H](NC(C)=O)[C@H]([C@H](OC(C)=O)[C@@H](COC(C)=O)OC(C)=O)O1 (some centres not stated)	116 to 118 °C
O=C(c1ccc(Cl)c([N+](=O)[O-])c1)c1ccc(Cl)c([N+](=O)[O-])c1	131 to 132 °C
CC(C)(C)OC(=O)C[C@H](NC(=O)CNC(=O)c1csc(NC(=O)NCc2ccccc2)n1)C(=O)NCc1ccccc1	123 °C
O=c1oc2cc(O)c(O)cc2c(O)c1C1c2ccccc2Oc2c1c(=O)oc1cc(O)cc(O)c21 (configuration not stated)	> 300 °C
COc1ccccc1CCNC[C@H](O)COc1ncccc1C#N	97 to 99 °C
CC1(C)C(=O)Oc2ccc3cc(C#N)c(Cn4cncn4)cc3c21	198 °C
Cc1nn(C)c(O)c1C(=O)c1ccc(S(C)(=O)=O)c(-c2cnco2)c1Cl	236 to 241 °C
COCCc1nnc(NC(=O)C(c2ccccc2)c2ccccc2)o1	114 to 115 °C
Cc1cccc(NC(=O)NC2N=C(c3ccccc3F)c3ccccc3N(Cc3nc4ccccc4o3)C2=O)c1 (racemic)	209 to 210 °C
N#Cc1ccc(OCc2ccsc2)cc1OC(CCC(=O)O)c1c(F)cccc1Cl (racemic)	128 to 130 °C
CC(C)OC(=O)C(CO)NC(=O)C(CC(=O)O)NC(=O)C1CCCN1 (stereo not drawn) (H-Pro-Asp-Ser-OiPr; configuration not given here)	230 to 233 °C
CN(C)C(=O)c1ccc(C(N)=O)cc1S(N)(=O)=O	202 to 205 °C
CC(C)C1(C)N=C(c2c(C(=O)O)ccc3ccsc23)NC1=O (configuration not stated)	200 to 202 °C
CCc1cc(CCN2C(=O)c3ccccc3C2=O)c(=O)[nH]c1C	232 to 233 °C
NC(=S)NN1CCOCC1	168 °C
CC(C)(CO)Oc1ccc(CNc2ccc(Cl)cc2)cc1	84 to 91 °C
CCn1c(=O)c2[nH]c(/C=C/c3cccc(F)c3C)nc2n(CC)c1=O	> 270 °C
O=C(O)c1ccc(NCCCc2ccccc2)cc1	162 to 163 °C
CNC(=Nc1cccc(CN(C)C)n1)NC#N	180 to 181 °C
CCCCCCCCCCCCCCOc1ccc(CC(=O)OC)cc1F	38 to 40 °C

The next lines start with the values.

melting point	SMILES
245 to 247 °C	Fc1ccccc1Cn1nnc2c(NC3CC3)nccc21
211 to 213 °C	Nc1cc(N2CCCC2)c2c(Cl)ccc3c2c1C(=O)N(O)C3=O
190 °C	Nc1nn2ccccc2c1N
157 to 158 °C	Cc1oc(C=Cc2ccc(Cl)cc2)nc1CC(=O)O
234 to 235 °C	CCSc1nc2ccccc2c(=O)n1NC(=O)Nc1ccc(Cl)cc1
141 °C	CSc1ccc(C(O)(c2ccc(Cl)cc2)C2CCN(CCO)C2=O)cc1 (configuration not stated)
145 °C	NC(=O)Cn1ccc(-c2ccc(Oc3ccc(F)cc3)cc2)n1
139 to 140 °C	CC(=O)NCc1ccc(CN2CCN(c3cccnc3)CC2)cc1
250 to 253 °C	N=C(NO)c1ccc(-c2ccc(-c3nc4cc(C(=N)NO)ccc4[nH]3)cc2)c(OCc2ccccc2)c1
55 to 57 °C	O=C(O)CCCCCCCc1nn(-c2ccccc2)c2c1CCC2
199 to 202 °C	O=C(O)Cc1ccc2cc(OCc3ccc4ccccc4n3)ccc2c1
90 to 94 °C	CCOC(=O)c1cn(-c2ccc3ncccc3c2)cn1
125 to 128 °C	CCOC(=O)c1c(-c2cccc([N+](=O)[O-])c2)cc(-c2ccccc2)nc1CBr
153 to 154 °C	Cc1cccc(Nc2ncccc2[N+](=O)[O-])n1
138 to 140 °C	Nc1sc2c(c1C(=O)c1ccccc1)CCN(C(=O)OCc1ccccc1)C2
177 to 180 °C	Nc1nc(NC2CCC(CO)C2)c2ncn(C3C=CC(CO)C3)c2n1 (configuration not stated)
190 °C	O=[N+]([O-])c1cc2ccccc2nc1Nc1ccc(O)cc1
175 °C	CC(C)CN1CCC(CCC(=O)c2cc(Cl)c(N)[nH]c2=O)CC1
153 to 154 °C	CC(C)c1nn(-c2ncc(C#N)cn2)cc1CCCO
228 to 230 °C	CC(=O)Nc1cccc(-c2csc(NC(N)=S)n2)c1C
115 to 116 °C	C=CCOc1ccc(OC)cc1C(=O)c1oc2ccc(Cl)cc2c1N

melting point	SMILES
178 °C	NC(=O)CCC1CCC(=O)N1 (configuration not stated)
237 to 239 °C	CC(=O)OC1Cc2ccc(N)cc2C1 (configuration not stated)
117 to 119 °C	CC(=O)NCCCCCC(=O)Nc1ncccc1C(=O)c1ccc(Cl)cc1
214 to 215 °C	COc1ccc2c(ccn3c(C(F)(F)F)nnc23)c1
> 250 °C	CSc1ncc2ccc(N)nc2n1
230 to 231 °C	CC(C)(C)n1nnc(NC(=O)C2c3ccccc3Oc3ccccc32)n1
266 to 270 °C	Cc1cc(O)n2nc(CC(=O)O)nc2n1
> 260 °C	COC(=O)CCCC(=O)NS(=O)(=O)c1ccc(N)cc1
250 to 252 °C	CN(C)c1nc2sc3c(NCc4cccnc4)ncnc3c2c2c1COC(C)(C)C2
192 to 193 °C	NC(=O)c1c(Cl)c(-c2ccccc2)n2c1CN(S(=O)(=O)c1ccc(Cl)c(Cl)c1)CC2
150 °C	CCOC(=O)CNC(=O)N1CCc2cc(S(=O)(=O)N3CCN(c4cccc(Cl)c4)CC3)ccc21
145 °C	CCOC(=O)C1=C(N)N=C(OCC)C(C(=O)OCC)C1c1ccc(-c2ccccc2)cc1 (configuration not stated)
173 to 175 °C	CCOc1ccc2[nH]c3c(c2c1)C[C@@](C)(C(=O)OC)N[C@@H]3c1cccc(O)c1 (racemic)
81.5 to 82.5 °C	CCCCCCCCCCN1C(=O)C2CC(c3ccc(N)cc3)(C2)C1=O
185 to 190 °C	CN(C)CCOc1cnc(Nc2cc(-c3cccc(-n4ncc5cc(C(C)(C)C)cc(F)c5c4=O)c3CO)nn(C)c2=O)cn1
125 to 132 °C	CC(C)(C)NS(=O)(=O)c1cn(CCOC2CCCCO2)c2ccccc12 (configuration not stated)
214 to 215 °C	Cn1cc(C(=O)NCc2ccc(Cl)cc2)c(=O)c2cc(CN3CCC(F)(F)CC3)ccc21
181 to 183 °C	NC(=S)NN=C(CCC(=O)N1CCCCC1)c1ccccc1
173 to 175 °C	CCOCc1nc2c(N)nc3cc(OCc4nc(-c5cccs5)no4)ccc3c2n1CC(C)(C)O
89 to 90 °C	Cc1oc(-c2ccccc2)nc1COc1cccc(N)c1
215 to 220 °C	O=C(O)C1Cc2c(ncn2CCc2ccccc2)CN1C(=O)Cc1ccccc1 (configuration not stated)
